The source of these data is patent publication US9340590B2 (priority 2011, dated 2016).

Common to all, as to test: cell-based
The target of one assay is hNav1.3 (Homo sapiens, UniProt Q9NY46). To be noted: IonWorks Quattro, use, […], read-out: IWQ Use Nav1.3. (In patch-clamp work, channel activity is measured electrically.)
For another assay, the target named is hNav1.7 (Homo sapiens, UniProt Q15858). The format is cell-based. Conditions: IonWorks Quattro, use, […], read-out: IWQ Use Nav1.7.
For the next assay, the target named is hNav1.5 (Homo sapiens, UniProt Q14524). Conditions: IonWorks Quattro, use, […], read-out: IWQ Use Nav1.5.

Where two headings read alike, the source gives them in different places. Positions of bridges follow the written chain, without caps; N, C: chain ends. Non-standard residues stand in square brackets, D forms with d. Residues, ends and D or L forms follow the SMILES beside them. Phe(4-COOH) = N[C@@H](Cc1ccc(C(=O)O)cc1)C(=O)O; Bip = N[C@@H](Cc1ccc(-c2ccccc2)cc1)C(=O)O; Arg(Me2s) = CN=C(NC)NCCC[C@H](N)C(=O)O; 2Pal = N[C@@H](Cc1ccccn1)C(=O)O; Phg = N[C@H](C(=O)O)c1ccccc1

Chain of hNav1.7 (Q15858 whole entry, looked up): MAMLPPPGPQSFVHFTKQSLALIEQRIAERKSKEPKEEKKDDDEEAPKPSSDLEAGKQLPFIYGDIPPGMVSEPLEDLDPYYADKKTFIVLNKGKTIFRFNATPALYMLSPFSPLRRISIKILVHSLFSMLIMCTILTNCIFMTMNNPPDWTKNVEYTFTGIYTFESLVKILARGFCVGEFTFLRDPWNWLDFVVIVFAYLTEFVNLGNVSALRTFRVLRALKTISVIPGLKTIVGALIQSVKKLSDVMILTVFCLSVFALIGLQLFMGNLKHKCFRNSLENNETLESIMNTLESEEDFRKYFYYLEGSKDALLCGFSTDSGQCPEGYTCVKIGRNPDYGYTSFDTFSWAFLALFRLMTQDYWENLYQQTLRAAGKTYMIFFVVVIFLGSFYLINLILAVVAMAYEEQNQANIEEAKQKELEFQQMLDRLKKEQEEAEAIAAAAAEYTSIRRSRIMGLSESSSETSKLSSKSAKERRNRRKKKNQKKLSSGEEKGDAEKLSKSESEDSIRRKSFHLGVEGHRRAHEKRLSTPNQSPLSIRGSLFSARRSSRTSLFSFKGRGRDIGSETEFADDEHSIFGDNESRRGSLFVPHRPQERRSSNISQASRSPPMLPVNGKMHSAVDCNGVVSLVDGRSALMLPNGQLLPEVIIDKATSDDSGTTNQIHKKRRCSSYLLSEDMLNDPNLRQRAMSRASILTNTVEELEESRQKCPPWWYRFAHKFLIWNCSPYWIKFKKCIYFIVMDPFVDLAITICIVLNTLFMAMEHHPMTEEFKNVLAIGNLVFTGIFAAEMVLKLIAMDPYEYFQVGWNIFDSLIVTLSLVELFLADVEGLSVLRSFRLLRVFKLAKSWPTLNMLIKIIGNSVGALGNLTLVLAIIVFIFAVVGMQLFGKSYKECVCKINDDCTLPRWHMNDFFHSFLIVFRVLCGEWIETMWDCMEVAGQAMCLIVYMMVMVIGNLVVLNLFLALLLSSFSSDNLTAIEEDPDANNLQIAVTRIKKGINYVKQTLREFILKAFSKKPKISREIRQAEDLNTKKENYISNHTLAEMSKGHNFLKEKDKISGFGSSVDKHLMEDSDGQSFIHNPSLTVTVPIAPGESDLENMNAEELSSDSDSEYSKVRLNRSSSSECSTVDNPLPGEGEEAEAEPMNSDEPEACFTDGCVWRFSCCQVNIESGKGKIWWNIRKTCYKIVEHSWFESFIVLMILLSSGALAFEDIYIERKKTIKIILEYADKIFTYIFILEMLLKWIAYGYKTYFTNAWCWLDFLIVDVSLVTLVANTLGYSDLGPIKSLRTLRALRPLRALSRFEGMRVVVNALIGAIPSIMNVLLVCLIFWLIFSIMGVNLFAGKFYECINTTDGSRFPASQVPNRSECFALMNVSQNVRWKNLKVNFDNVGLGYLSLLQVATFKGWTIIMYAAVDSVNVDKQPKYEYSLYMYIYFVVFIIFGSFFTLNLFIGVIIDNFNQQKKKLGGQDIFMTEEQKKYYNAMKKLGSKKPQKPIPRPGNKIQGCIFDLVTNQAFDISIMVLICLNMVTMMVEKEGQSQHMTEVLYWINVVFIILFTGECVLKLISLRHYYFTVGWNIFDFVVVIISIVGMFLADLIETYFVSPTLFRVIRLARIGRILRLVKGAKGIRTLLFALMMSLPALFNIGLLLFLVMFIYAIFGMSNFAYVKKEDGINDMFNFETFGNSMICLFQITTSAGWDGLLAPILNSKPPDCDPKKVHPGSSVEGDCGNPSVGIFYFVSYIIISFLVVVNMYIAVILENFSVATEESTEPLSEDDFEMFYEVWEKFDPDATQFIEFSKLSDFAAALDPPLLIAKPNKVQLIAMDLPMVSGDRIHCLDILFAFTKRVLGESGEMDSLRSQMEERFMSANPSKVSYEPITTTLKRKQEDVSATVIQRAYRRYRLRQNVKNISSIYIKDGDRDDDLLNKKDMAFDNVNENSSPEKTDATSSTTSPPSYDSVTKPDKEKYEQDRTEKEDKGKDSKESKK
Chain of hNav1.3 (Q9NY46 whole entry, looked up): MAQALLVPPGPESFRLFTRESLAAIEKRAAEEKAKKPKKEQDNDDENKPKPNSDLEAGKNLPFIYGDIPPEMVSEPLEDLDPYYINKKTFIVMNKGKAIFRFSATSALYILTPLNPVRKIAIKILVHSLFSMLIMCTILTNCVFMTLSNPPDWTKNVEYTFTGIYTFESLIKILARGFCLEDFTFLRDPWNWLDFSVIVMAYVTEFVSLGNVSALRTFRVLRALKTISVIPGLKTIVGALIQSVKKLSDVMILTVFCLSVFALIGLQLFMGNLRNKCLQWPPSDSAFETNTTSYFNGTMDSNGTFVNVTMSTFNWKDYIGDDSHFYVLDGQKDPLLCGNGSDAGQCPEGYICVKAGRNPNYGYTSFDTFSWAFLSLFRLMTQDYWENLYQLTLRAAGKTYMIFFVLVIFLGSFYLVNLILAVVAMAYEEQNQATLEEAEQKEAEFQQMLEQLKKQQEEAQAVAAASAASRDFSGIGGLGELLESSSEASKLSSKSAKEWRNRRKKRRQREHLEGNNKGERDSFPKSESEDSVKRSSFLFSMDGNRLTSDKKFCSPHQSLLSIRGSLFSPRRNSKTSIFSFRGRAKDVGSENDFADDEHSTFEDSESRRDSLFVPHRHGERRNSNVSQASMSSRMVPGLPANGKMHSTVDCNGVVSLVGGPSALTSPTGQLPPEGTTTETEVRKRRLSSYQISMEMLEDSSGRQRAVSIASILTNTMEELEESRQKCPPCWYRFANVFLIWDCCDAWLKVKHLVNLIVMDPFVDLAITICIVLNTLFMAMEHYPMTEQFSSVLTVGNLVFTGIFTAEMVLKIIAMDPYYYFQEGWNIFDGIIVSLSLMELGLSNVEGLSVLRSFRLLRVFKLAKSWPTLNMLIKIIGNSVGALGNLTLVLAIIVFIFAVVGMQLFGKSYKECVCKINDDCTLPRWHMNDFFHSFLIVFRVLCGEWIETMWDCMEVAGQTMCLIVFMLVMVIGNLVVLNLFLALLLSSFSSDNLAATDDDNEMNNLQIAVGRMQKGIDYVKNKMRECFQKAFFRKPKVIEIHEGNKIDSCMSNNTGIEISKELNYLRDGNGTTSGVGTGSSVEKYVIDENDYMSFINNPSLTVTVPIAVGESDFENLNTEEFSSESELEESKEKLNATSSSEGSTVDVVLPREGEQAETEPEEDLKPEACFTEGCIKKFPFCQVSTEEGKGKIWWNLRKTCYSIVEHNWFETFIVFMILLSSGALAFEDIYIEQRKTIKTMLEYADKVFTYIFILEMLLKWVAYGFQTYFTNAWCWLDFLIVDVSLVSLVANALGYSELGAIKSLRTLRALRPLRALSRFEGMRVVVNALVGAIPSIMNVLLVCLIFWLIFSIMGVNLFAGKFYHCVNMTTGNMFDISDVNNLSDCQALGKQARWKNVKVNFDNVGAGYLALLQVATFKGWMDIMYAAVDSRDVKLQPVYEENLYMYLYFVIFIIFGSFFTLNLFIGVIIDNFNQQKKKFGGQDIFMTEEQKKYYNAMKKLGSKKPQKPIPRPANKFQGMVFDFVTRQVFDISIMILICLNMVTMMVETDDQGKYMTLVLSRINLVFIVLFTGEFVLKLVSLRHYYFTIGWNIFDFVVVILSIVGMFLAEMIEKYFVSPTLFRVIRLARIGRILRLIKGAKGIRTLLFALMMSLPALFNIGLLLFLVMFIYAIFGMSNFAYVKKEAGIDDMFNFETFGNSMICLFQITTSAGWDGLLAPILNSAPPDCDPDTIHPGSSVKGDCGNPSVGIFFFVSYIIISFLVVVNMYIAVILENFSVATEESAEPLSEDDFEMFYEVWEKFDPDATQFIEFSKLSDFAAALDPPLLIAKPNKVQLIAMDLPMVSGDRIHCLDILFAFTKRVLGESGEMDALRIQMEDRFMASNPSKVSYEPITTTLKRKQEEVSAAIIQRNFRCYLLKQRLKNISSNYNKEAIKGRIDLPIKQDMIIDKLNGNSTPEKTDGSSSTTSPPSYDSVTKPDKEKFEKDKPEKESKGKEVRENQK

On to `CC[C@H](C)[C@@H]1NC(=O)[C@@H]2CSSC[C@@H]3NC(=O)[C@H](C(C)C)NC(=O)[C@H](CC(C)C)NC(=O)[C@H](CC(N)=O)NC(=O)[C@@H]4CCCN4C(=O)[C@H](CCCNC(=N)N)NC(=O)[C@H](CSSC[C@H](NC(=O)[C@@H](N)CC(=O)O)C(=O)N[C@@H](CC(C)C)C(=O)NCC(=O)N[C@@H](Cc4ccccc4)C(=O)N[C@@H](CCSC)C(=O)N[C@@H](CCCNC(=N)N)C(=O)N[C@@H](CCCCN)C(=O)N2)NC(=O)[C@H](CSSC[C@@H](C(=O)N[C@@H](CCCCN)C(=O)N[C@@H](Cc2ccc(O)cc2)C(=O)N[C@H](C(=O)N[C@@H](Cc2ccccc2)C(N)=O)C(C)C)NC(=O)[C@H](Cc2ccc(-c4ccccc4)cc2)NC(=O)[C@H](CCCCN)NC(=O)[C@H](Cc2c[nH]cn2)NC(=O)[C@H]([C@@H](C)O)NC(=O)[C@H](CCCNC(=N)N)NC(=O)[C@H](CO)NC3=O)NC(=O)[C@H](CCCCN)NC(=O)[C@H](CC(=O)O)NC(=O)[C@H](CC(N)=O)NC(=O)[C@H](CC(=O)O)NC(=O)[C@@H]2CCCN2C1=O` [compound 360] (H-DCLGFMRKCIPDNDKCCRPNLVCSRTHK[Bip]CKYVF-NH2; disulfide 2-17, 9-23, 16-30), for which the figures for the IC50 at hNav1.3 (Table 24), at hNav1.7 (Table 24) and at hNav1.5 (Table 24) were 6.95 µM, 4.79 µM and 9.77 µM, respectively.
Taken in the same sequence, the figures for `CC[C@H](C)[C@@H]1NC(=O)[C@@H]2CSSC[C@@H]3NC(=O)[C@H](C(C)C)NC(=O)[C@H](CC(C)C)NC(=O)[C@H](CC(N)=O)NC(=O)[C@@H]4CCCN4C(=O)[C@H](CCCNC(=N)N)NC(=O)[C@H](CSSC[C@H](NC(=O)[C@@H](N)CC(=O)O)C(=O)N[C@@H](CC(C)C)C(=O)NCC(=O)N[C@@H](Cc4ccccc4)C(=O)N[C@@H](CCSC)C(=O)N[C@@H](CCCNC(=N)N)C(=O)N[C@@H](CCCCN)C(=O)N2)NC(=O)[C@H](CSSC[C@@H](C(=O)N[C@@H](CCCCN)C(=O)N[C@@H](Cc2ccc(O)cc2)C(=O)N[C@H](C(=O)N[C@@H](Cc2ccccc2)C(N)=O)C(C)C)NC(=O)[C@H](Cc2cn(C)c4ccccc24)NC(=O)[C@H](CCCCN)NC(=O)[C@H](Cc2c[nH]cn2)NC(=O)[C@H]([C@@H](C)O)NC(=O)[C@H](CCCNC(=N)N)NC(=O)[C@H](CO)NC3=O)NC(=O)[C@H](CCCCN)NC(=O)[C@H](CC(=O)O)NC(=O)[C@H](CC(N)=O)NC(=O)[C@H](CC(=O)O)NC(=O)[C@@H]2CCCN2C1=O` [compound 361] were 4.58 µM, 3.89 µM and 12.2 µM.
Taken in the same sequence, the figures for `CC[C@H](C)[C@@H]1NC(=O)[C@@H]2CSSC[C@@H]3NC(=O)[C@H](C(C)C)NC(=O)[C@H](CC(C)C)NC(=O)[C@H](CC(N)=O)NC(=O)[C@@H]4CCCN4C(=O)[C@H](CCCNC(=N)N)NC(=O)[C@H](CSSC[C@H](NC(=O)[C@@H](N)CC(=O)O)C(=O)N[C@@H](CC(C)C)C(=O)NCC(=O)N[C@@H](Cc4ccccc4)C(=O)N[C@@H](CCSC)C(=O)N[C@@H](CCCNC(=N)N)C(=O)N[C@@H](CCCCN)C(=O)N2)NC(=O)[C@H](CSSC[C@@H](C(=O)N[C@@H](CCCCN)C(=O)N[C@@H](Cc2ccc(O)cc2)C(=O)N[C@H](C(=O)N[C@@H](Cc2ccccc2)C(N)=O)C(C)C)NC(=O)[C@H](c2ccccc2)NC(=O)[C@H](CCCCN)NC(=O)[C@H](Cc2c[nH]cn2)NC(=O)[C@H]([C@@H](C)O)NC(=O)[C@H](CCCNC(=N)N)NC(=O)[C@H](CO)NC3=O)NC(=O)[C@H](CCCCN)NC(=O)[C@H](CC(=O)O)NC(=O)[C@H](CC(N)=O)NC(=O)[C@H](CC(=O)O)NC(=O)[C@@H]2CCCN2C1=O` [compound 362] (H-DCLGFMRKCIPDNDKCCRPNLVCSRTHK[Phg]CKYVF-NH2; disulfide 2-17, 9-23, 16-30) were 3.18 µM, 5.52 µM and 7.85 µM.
As to `CC[C@H](C)[C@@H]1NC(=O)[C@@H]2CSSC[C@@H]3NC(=O)[C@H](C(C)C)NC(=O)[C@H](CC(C)C)NC(=O)[C@H](CC(N)=O)NC(=O)[C@@H]4CCCN4C(=O)[C@H](CCCNC(=N)N)NC(=O)[C@H](CSSC[C@H](NC(=O)[C@@H](N)CC(=O)O)C(=O)N[C@@H](CC(C)C)C(=O)NCC(=O)N[C@@H](Cc4ccccc4)C(=O)N[C@@H](CCSC)C(=O)N[C@@H](CCCNC(=N)N)C(=O)N[C@@H](CCCCN)C(=O)N2)NC(=O)[C@H](CSSC[C@@H](C(=O)N[C@@H](CCCCN)C(=O)N[C@@H](Cc2ccc(O)cc2)C(=O)N[C@H](C(=O)N[C@@H](Cc2ccccc2)C(N)=O)C(C)C)NC(=O)[C@H](Cc2ccc(C(=O)O)cc2)NC(=O)[C@H](CCCCN)NC(=O)[C@H](Cc2c[nH]cn2)NC(=O)[C@H]([C@@H](C)O)NC(=O)[C@H](CCCNC(=N)N)NC(=O)[C@H](CO)NC3=O)NC(=O)[C@H](CCCCN)NC(=O)[C@H](CC(=O)O)NC(=O)[C@H](CC(N)=O)NC(=O)[C@H](CC(=O)O)NC(=O)[C@@H]2CCCN2C1=O` [compound 363] (H-DCLGFMRKCIPDNDKCCRPNLVCSRTHK[Phe(4-COOH)]CKYVF-NH2; disulfide 2-17, 9-23, 16-30), the IC50 was 14.9 µM at hNav1.3 (Table 24), 15 µM at hNav1.7 (Table 24) and 18.8 µM at hNav1.5 (Table 24).
On to `CC[C@H](C)[C@@H]1NC(=O)[C@@H]2CSSC[C@@H]3NC(=O)[C@H](C(C)C)NC(=O)[C@H](CC(C)C)NC(=O)[C@H](CC(N)=O)NC(=O)[C@@H]4CCCN4C(=O)[C@H](CCCNC(=N)N)NC(=O)[C@H](CSSC[C@H](NC(=O)[C@@H](N)CC(=O)O)C(=O)N[C@@H](CC(C)C)C(=O)NCC(=O)N[C@@H](Cc4ccccc4)C(=O)N[C@@H](CCSC)C(=O)N[C@@H](CCCNC(=N)N)C(=O)N[C@@H](CCCCN)C(=O)N2)NC(=O)[C@H](CSSC[C@@H](C(=O)N[C@@H](Cc2ccccn2)C(=O)N[C@@H](Cc2ccc(O)cc2)C(=O)N[C@H](C(=O)N[C@@H](Cc2ccccc2)C(N)=O)C(C)C)NC(=O)[C@H](Cc2c[nH]c4ccccc24)NC(=O)[C@H](CCCCN)NC(=O)[C@H](Cc2c[nH]cn2)NC(=O)[C@H]([C@@H](C)O)NC(=O)[C@H](CCCNC(=N)N)NC(=O)[C@H](CO)NC3=O)NC(=O)[C@H](CCCCN)NC(=O)[C@H](CC(=O)O)NC(=O)[C@H](CC(N)=O)NC(=O)[C@H](CC(=O)O)NC(=O)[C@@H]2CCCN2C1=O` [compound 364] (H-DCLGFMRKCIPDNDKCCRPNLVCSRTHKWC[2Pal]YVF-NH2; disulfide 2-17, 9-23, 16-30), for which the IC50 on hNav1.3 (Table 25) amounted to 16.9 µM; on hNav1.7 (Table 25), 11 µM; at hNav1.5 (Table 25) it was 9.49 µM.
As for `CC[C@H](C)[C@@H]1NC(=O)[C@@H]2CSSC[C@@H]3NC(=O)[C@H](C(C)C)NC(=O)[C@H](CC(C)C)NC(=O)[C@H](CC(N)=O)NC(=O)[C@@H]4CCCN4C(=O)[C@H](CCCNC(=N)N)NC(=O)[C@H](CSSC[C@H](NC(=O)[C@@H](N)CC(=O)O)C(=O)N[C@@H](CC(C)C)C(=O)NCC(=O)N[C@@H](Cc4ccccc4)C(=O)N[C@@H](CCSC)C(=O)N[C@@H](CCCNC(=N)N)C(=O)N[C@@H](CCCCN)C(=O)N2)NC(=O)[C@H](CSSC[C@@H](C(=O)N[C@@H](CCCNC(=NC)NC)C(=O)N[C@@H](Cc2ccc(O)cc2)C(=O)N[C@H](C(=O)N[C@@H](Cc2ccccc2)C(N)=O)C(C)C)NC(=O)[C@H](Cc2c[nH]c4ccccc24)NC(=O)[C@H](CCCCN)NC(=O)[C@H](Cc2c[nH]cn2)NC(=O)[C@H]([C@@H](C)O)NC(=O)[C@H](CCCNC(=N)N)NC(=O)[C@H](CO)NC3=O)NC(=O)[C@H](CCCCN)NC(=O)[C@H](CC(=O)O)NC(=O)[C@H](CC(N)=O)NC(=O)[C@H](CC(=O)O)NC(=O)[C@@H]2CCCN2C1=O` [compound 365] (H-DCLGFMRKCIPDNDKCCRPNLVCSRTHKWC[Arg(Me2s)]YVF-NH2; disulfide 2-17, 9-23, 16-30), the IC50 came out at 4.55 µM on hNav1.3 (Table 25), 4.15 µM at hNav1.7 (Table 25) and 14.2 µM at hNav1.5 (Table 25).
Taken in the same sequence, the figures for `CC[C@H](C)[C@@H]1NC(=O)[C@@H]2CSSC[C@@H]3NC(=O)[C@H](C(C)C)NC(=O)[C@H](CC(C)C)NC(=O)[C@H](CC(N)=O)NC(=O)[C@@H]4CCCN4C(=O)[C@H](CCCNC(=N)N)NC(=O)[C@H](CSSC[C@H](NC(=O)[C@@H](N)CC(=O)O)C(=O)N[C@@H](CC(C)C)C(=O)NCC(=O)N[C@@H](Cc4ccccc4)C(=O)N[C@@H](CCSC)C(=O)N[C@@H](CCCNC(=N)N)C(=O)N[C@@H](CCCCN)C(=O)N2)NC(=O)[C@H](CSSC[C@@H](C(=O)N[C@@H](CCCCN)C(=O)N[C@@H](CCC(N)=O)C(=O)N[C@H](C(=O)N[C@@H](Cc2ccccc2)C(N)=O)C(C)C)NC(=O)[C@H](Cc2c[nH]c4ccccc24)NC(=O)[C@H](CCCCN)NC(=O)[C@H](Cc2c[nH]cn2)NC(=O)[C@H]([C@@H](C)O)NC(=O)[C@H](CCCNC(=N)N)NC(=O)[C@H](CO)NC3=O)NC(=O)[C@H](CCCCN)NC(=O)[C@H](CC(=O)O)NC(=O)[C@H](CC(N)=O)NC(=O)[C@H](CC(=O)O)NC(=O)[C@@H]2CCCN2C1=O` [compound 366] (H-DCLGFMRKCIPDNDKCCRPNLVCSRTHKWCKQVF-NH2; disulfide 2-17, 9-23, 16-30) were 2.39 µM, 4.87 µM and 21 µM.
